Data taken from patent US20150231162A1, “FRUCTOSE ABSORPTION INHIBITOR” (Nagaoka Perfumery Co., Ltd., priority 2011, published 2015).

Each compound was assayed on human colon carcinoma cell line, Caco-2 (assay: Fructose absorption inhibitory activity in the intestinal tracts (fructose permeation across a Caco-2 monolayer in Transwell inserts)). Details: Dosage 5 μg/ml; 50 mM fructose, 3 h, Caco-2 Transwell.
Assay type: cell-based
Protocol: Evaluation of fructose absorption inhibitory activity was carried out using the human colon carcinoma cell line, Caco-2 (manufactured by Dainippon Sumitomo Pharma Co., Ltd.) utilized for model experiments of the small intestinal mucosa. […] Caco-2 cells were seeded in a 6-well Transwell Insert (internal area: 4.2 cm2) and subcultured for around 3 weeks, while DMEM medium was replaced once every 3 to 4 days, until the Caco-2 cell density became around 2×10^5 cells/insert. The TEER value was measured before experiments and the state of Caco-2 cells was confirmed. […] Medium in the 6-well Transwell Insert was removed. […] A sample solution of each sample illustrated in Table 1 was added to the insert and each mixture was preincubated for 5 min. […] The TEER values were measured. […] The measurement was carried out three times for each sample illustrated in Table 1. The fructose concentrations of the permeated solutions were measured by an enzymatic method using D-fructose dehydrogenase (derived from Gluconobac sp.) (The concentration of each reagent represents the final concentration, respectively.). […] The fructose absorption inhibitory rate of each compound was determined using the following formula (I). […] As control, measurement was also carried out for gallic acid, ellagic acid, quercetin, (+)-catechin, (−)-epicatechin and (−)-epigallocatechin gallate.

Compared with `O=C(O[C@H]1[C@@H]2OC(=O)c3cc(O)c(O)c(O)c3-c3c(cc(O)c(O)c3O)C(=O)OC[C@H]2OC(O)[C@@H]1OC(=O)c1cc(O)c(O)c(O)c1)c1cc(O)c(O)c(O)c1` (stereo partly shown) [compound 1, Tellimagrandin I], `O=C(O[C@@H]1O[C@@H]2COC(=O)c3cc(O)c(O)c(O)c3-c3c(cc(O)c(O)c3O)C(=O)O[C@H]2[C@H](OC(=O)c2cc(O)c(O)c(O)c2)[C@H]1O)c1cc(O)c(O)c(O)c1` [compound 5, 1,3-di-O-galloyl-4,6-HHDP-β-D-glucose] is higher in “Inhibitory Rate” value: 49% for the first, 57% for the second.

Going from `O=C(O[C@H]1[C@@H]2OC(=O)c3cc(O)c(O)c(O)c3-c3c4cc(c(O)c3O)Oc3c(cc(O)c(O)c3O)C(=O)O[C@H]3C(O)O[C@@H]5COC(=O)c6cc(O)c(O)c(O)c6-c6c(cc(c(O)c6O)Oc6c(cc(O)c(O)c6O)C(=O)O[C@H]1C(O)O[C@@H]2COC4=O)C(=O)O[C@H]5[C@@H]3OC(=O)c1cc(O)c(O)c(O)c1)c1cc(O)c(O)c(O)c1` (stereo partly shown) [compound 7, Oenothein B] to “(−)-epigallocatechin gallate [compound 16, reference compound]”, the “Inhibitory Rate” value falls from 63% to 28%.

With Eugeniflorin D2 [compound 6] the “Inhibitory Rate” value was 53%.

Same assay, conditions: Dosage 50 μg/ml; 50 mM fructose, 3 h, Caco-2 Transwell

For `Oc1cc(O)c2c(c1)O[C@H](c1ccc(O)c(O)c1)[C@@H](O)C2` [compound 14, (+)-catechin, reference compound], the “Inhibitory Rate” value was <10%.
With `Oc1cc(O)c2c(c1)O[C@H](c1ccc(O)c(O)c1)[C@H](O)C2` [compound 15, (−)-epicatechin, reference compound] the “Inhibitory Rate” value was <10%.

Same assay, conditions: Homo sapiens; Dosage 5 μg/ml; 50 mM fructose, 3 h, Caco-2 Transwell; read-out: Inhibitory Rate

First: O=C(OC1O[C@@H]2COC(=O)c3cc(O)c(O)c(O)c3-c3c(cc(O)c(O)c3O)C(=O)O[C@H]2[C@H](OC(=O)c2cc(O)c(O)c(O)c2)[C@H]1OC(=O)c1cc(O)c(O)c(O)c1)c1cc(O)c(O)c(O)c1 (stereo partly shown) [compound 2, Tellimagrandin II]
Second: O=C(O[C@@H]1O[C@@H]2COC(=O)c3cc(O)c(O)c(O)c3-c3cc(c(O)c(O)c3O)C(=O)O[C@H]2[C@@H]2OC(=O)c3cc(O)c(O)c(O)c3-c3c(cc(O)c(O)c3O)C(=O)O[C@@H]12)c1cc(O)c(O)c(O)c1 [compound 4, Casuarictin]
The inhibition at 5 µg/mL of the first is higher: 52% for the first, 46% for the second.

For `O=C(O[C@@H]1O[C@@H]2COC(=O)c3cc(O)c(O)c(O)c3-c3c(cc(O)c(O)c3O)C(=O)O[C@H]2[C@H](O)[C@H]1O)c1cc(O)c(O)c(O)c1` [compound 3, Strictinin], the inhibition at 5 µg/mL was 43%.

Same assay, conditions: Homo sapiens; Dosage 50 μg/ml; 50 mM fructose, 3 h, Caco-2 Transwell; read-out: Inhibitory Rate

Going from `O=C(O)c1cc(O)c(O)c(O)c1` [compound 11, Gallic acid, reference compound] to `O=c1oc2c(O)c(O)cc3c(=O)oc4c(O)c(O)cc1c4c23` [compound 12, Ellagic acid, reference compound], the inhibition at 50 µg/mL rises from 19% to 22%.

Compound `O=c1c(O)c(-c2ccc(O)c(O)c2)oc2cc(O)cc(O)c12` [compound 13, Quercetin, reference compound] has an inhibition at 50 µg/mL of 23%.
